Holding throughout (experiment): inhibition of tumour cell growth, NCI panel, 48 h
For test [1], the system named is NCI-H522 lung.
The test system of test [2] is MALME-3M melanoma.
For test [3], the system named is MOLT-4 leukemia.
Test [4] relates to KM12 colon.
The subject of test [5] is LOX IMVI melanoma.
In test [6] the test system is ACHN renal.
Test [7] deals with UACC-62 melanoma.
The subject of test [8] is OVCAR-4 ovarian.
Test [9] deals with NCI/ADR-RES ovarian.
Test [10] relates to SR leukemia.
Test [11] deals with OVCAR-8 ovarian.
The subject of test [12] is NCI-H23 lung.
In test [13] the test system is PC-3 prostate.
Test [14] relates to MDA-MB-435.
Test [15] relates to HOP-62 NSCLC.
Test [16] relates to SNB-19 CNS.
In test [17] the test system is SW-620 colon.
The test system of test [18] is U251 CNS.
For test [19], the system named is MCF7 breast.

SMILES strings stand for the structures.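 In this assay, cells in 96-well plates receive the compound at five concentrations for 48 hours. Endpoints are linearly interpolated between the surrounding concentrations. TGI: concentration producing complete growth inhibition.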

As to `c1ccc2c(CSCc3cccc4ccccc34)cccc2c1`, the TGI in test [1], in [2], in test [3], in [4], in [5] and in [6] was more than 100 µM in each case. The TGI in test [7], in test [8], in test [9], in [10], in [11] and in test [12] was more than 100 µM each time. For the same compound, the TGI in test [13], in test [14], in [15], in [16], in [17] and in [18] was more than 100 µM each time.
As to `CC(C)(C)[Si](OC1CCOC1=O)(c1ccccc1)c1ccccc1` (centres undefined), the TGI in test [1] was 38 µM; in [2] it was 45.1 µM; in test [3], 59 µM; in [4], more than 10 µM; in test [5] it was 32.2 µM; in test [6], 99.6 µM. In addition, the TGI is 29.3 µM in test [7]; more than 10 µM in [10]; 70.9 µM in test [11]; 77.1 µM in test [12]; more than 100 µM in [16]; more than 100 µM in test [17]. The TGI in test [18] turned out to be 30.1 µM.
Take `C[n+]1cccc(NC(=O)c2ccc(NC(=O)C34CCC(C(=O)Nc5ccc(C(=O)Nc6ccc[n+](C)c6)cc5)(CC3)CC4)cc2)c1`: the TGI in [1] is more than 100 µM; in [3], more than 100 µM; in test [4] it was 22.7 µM; in test [5], more than 100 µM; in test [6], more than 100 µM; in [7], more than 100 µM. Moreover, the TGI in test [8], in test [10], in test [11], in test [12], in test [15] and in test [16] was more than 100 µM throughout. Moreover, the TGI in test [17] and in [18] was more than 100 µM each time.
`CCOc1cc(C2CC(c3ccc(NS(=O)(=O)c4cc([N+](=O)[O-])ccc4C)cc3)=NN2S(=O)(=O)c2cc([N+](=O)[O-])ccc2C)ccc1O` (centres undefined): the TGI in [1], in test [2], in test [3], in test [4], in [5] and in test [6] was more than 100 µM in each case. Moreover, the TGI in test [8], in test [9], in test [10], in [11], in test [12] and in [13] was more than 100 µM each time. Moreover, the TGI in test [14], in test [15], in [19], in test [16], in test [17] and in [18] was more than 100 µM each time.
As for `O=C(CSCC(=O)N/N=C/c1ccc2c(c1)OCO2)N/N=C/c1ccc2c(c1)OCO2`, the TGI in test [1] was more than 100 µM; in test [2], more than 100 µM; in test [3], 56.8 µM; in test [4], more than 100 µM; in [5], more than 100 µM; in test [6] it was more than 100 µM. Moreover, the TGI in test [7], in test [8], in [9], in [11], in test [12] and in test [13] was more than 100 µM each time. Moreover, the TGI in test [14], in test [15], in [19], in test [16], in [17] and in test [18] was more than 100 µM each time.
Regarding `CC1=NN(c2cccc(Cl)c2)C2(SCC(=O)N2c2nc3ccccc3s2)C1=CC=Cc1ccccc1` (centres undefined), the TGI in test [1] was 62.3 µM; in test [3], 87.5 µM; in test [4] it was more than 100 µM; in test [5], more than 100 µM; in test [6], 65.9 µM; in test [8], more than 100 µM. For the same compound, the TGI in test [9] was more than 100 µM; in test [10], 61.8 µM; in test [11], more than 100 µM; in test [12], 91.1 µM; in test [13], more than 100 µM; in [14], more than 100 µM. In addition, the TGI is more than 100 µM in test [15], more than 100 µM in test [19], more than 100 µM in test [17] and 48.8 µM in [18].
`CC(=O)Oc1ccccc1`: the TGI in test [1], in test [2], in test [3], in test [4], in test [5] and in test [6] was more than 100 µM in each case. The TGI in test [7], in test [8], in [11], in [12], in [15] and in [16] was more than 100 µM throughout. Besides, the TGI in [17] and in [18] was more than 100 µM throughout.
As for `CCCCN1C(=O)C2Cc3c([nH]c4ccccc34)C(c3cccc(O)c3)N2C1=O` (centres undefined), the TGI in [1] came out at 39.9 µM; in test [3], 69.6 µM; in [4], 36.2 µM; in [5], 32.2 µM; in [6], 34.1 µM; in test [7], 32.3 µM. Moreover, the TGI in test [8] was 34.6 µM; in [9] it was 36.2 µM; in test [10] it was 45.6 µM; in test [11], 33.2 µM; in [12], 37.9 µM; in [13], 32.8 µM. Moreover, the TGI was 32.4 µM in test [14]; 33.1 µM in test [15]; 36.2 µM in test [19]; 34.6 µM in test [16]; 38.7 µM in test [17]; 33.5 µM in [18].

For the origin of these results see PubChem BioAssay (NCI).
